A short description of experiment [1]: The compound was tested for the inhibition of subtilisin 72, activity expressed as Ki. Also noted: species or system Bacillus subtilis.
Experiment [2] can be described thus: The compound was tested for the inhibition of subtilisin 72, activity expressed as IC50. Also noted: species or system Bacillus subtilis.

Where a SMILES comes first, the peptide text is derived from it. The star is where a group is joined. Cbz = O=C(OCc1ccccc1)*

For orientation: Ki means a measure of affinity in units of concentration, obtained from inhibition or displacement. Lower therefore signals tighter binding. In the case of `C[C@H](NC(=O)OCc1ccccc1)C(=O)N[C@@H](C)C(=O)N[C@H](CO)Cc1ccccc1` (HELM PEPTIDE1{[O=C(OCc1ccccc1)[*:2]].A.A.[OC[C@H](Cc1ccccc1)N[*:1]]}$$$$V2.0), in experiment [1], the Ki was 1000 µM.
The IC50 is the concentration at which inhibition is half-maximal. A lower IC50 goes with greater potency. In the case of `C[C@H](NC(=O)OCc1ccccc1)C(=O)N[C@@H](C)C(=O)N[C@H](C=O)Cc1ccccc1` (Cbz-Ala-Ala-Phe-aldehyde), in experiment [1], the Ki was 0.18 µM. The molecule further returned an IC50 in experiment [2] of 0.9 µM.
